Consider 9 compounds from ChEMBL document CHEMBL1687694, “Aminoindazole PDK1 Inhibitors: A Case Study in Fragment-Based Drug Discovery” (ACS Med Chem Lett, 2010).

Experiment [1] concerns the target T1, 3-phosphoinositide-dependent protein kinase 1 (Homo sapiens, UniProt O15530).
T1 sequence (O15530 whole entry): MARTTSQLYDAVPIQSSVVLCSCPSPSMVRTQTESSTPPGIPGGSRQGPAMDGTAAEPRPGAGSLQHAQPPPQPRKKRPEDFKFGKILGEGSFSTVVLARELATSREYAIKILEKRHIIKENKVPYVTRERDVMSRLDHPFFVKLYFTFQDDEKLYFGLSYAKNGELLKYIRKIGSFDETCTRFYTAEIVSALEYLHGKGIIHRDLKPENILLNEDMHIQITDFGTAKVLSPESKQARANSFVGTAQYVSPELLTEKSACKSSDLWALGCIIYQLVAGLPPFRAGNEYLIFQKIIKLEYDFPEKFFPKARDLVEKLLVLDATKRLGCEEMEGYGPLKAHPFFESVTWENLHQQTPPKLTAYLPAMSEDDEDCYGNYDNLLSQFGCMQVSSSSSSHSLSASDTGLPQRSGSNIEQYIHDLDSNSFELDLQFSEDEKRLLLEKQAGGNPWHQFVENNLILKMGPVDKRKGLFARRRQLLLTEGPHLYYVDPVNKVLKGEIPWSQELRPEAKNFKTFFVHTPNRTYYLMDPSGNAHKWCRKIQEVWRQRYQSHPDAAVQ
Description: Inhibition of His-tagged-truncated human PDK1 preincubated with substrate biotinylated-AKT3 for 30 mins measured after 3 hrs by Scintillation proximity assay

The target in experiment [2] is RAC-alpha serine/threonine-protein kinase (Homo sapiens, UniProt P31749). Nature of the experiment: Inhibition of AKT1.
Chain of RAC-alpha serine/threonine-protein kinase (P31749 whole entry): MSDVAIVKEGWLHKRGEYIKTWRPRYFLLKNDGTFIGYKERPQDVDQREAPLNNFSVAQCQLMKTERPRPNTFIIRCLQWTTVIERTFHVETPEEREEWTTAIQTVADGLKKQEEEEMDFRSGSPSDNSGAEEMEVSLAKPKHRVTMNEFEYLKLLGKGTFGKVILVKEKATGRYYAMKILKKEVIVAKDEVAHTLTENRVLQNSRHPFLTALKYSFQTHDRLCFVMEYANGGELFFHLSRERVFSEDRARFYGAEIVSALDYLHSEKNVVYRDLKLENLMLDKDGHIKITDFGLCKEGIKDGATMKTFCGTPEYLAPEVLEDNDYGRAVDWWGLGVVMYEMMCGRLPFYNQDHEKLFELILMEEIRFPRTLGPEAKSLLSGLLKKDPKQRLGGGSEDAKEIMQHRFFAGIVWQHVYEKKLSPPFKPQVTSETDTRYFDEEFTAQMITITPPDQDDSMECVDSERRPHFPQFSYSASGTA
The target of experiment [3] is T2, Mitogen-activated protein kinase kinase kinase 5 (Homo sapiens, UniProt Q99683).
T2 sequence (Q99683 whole entry): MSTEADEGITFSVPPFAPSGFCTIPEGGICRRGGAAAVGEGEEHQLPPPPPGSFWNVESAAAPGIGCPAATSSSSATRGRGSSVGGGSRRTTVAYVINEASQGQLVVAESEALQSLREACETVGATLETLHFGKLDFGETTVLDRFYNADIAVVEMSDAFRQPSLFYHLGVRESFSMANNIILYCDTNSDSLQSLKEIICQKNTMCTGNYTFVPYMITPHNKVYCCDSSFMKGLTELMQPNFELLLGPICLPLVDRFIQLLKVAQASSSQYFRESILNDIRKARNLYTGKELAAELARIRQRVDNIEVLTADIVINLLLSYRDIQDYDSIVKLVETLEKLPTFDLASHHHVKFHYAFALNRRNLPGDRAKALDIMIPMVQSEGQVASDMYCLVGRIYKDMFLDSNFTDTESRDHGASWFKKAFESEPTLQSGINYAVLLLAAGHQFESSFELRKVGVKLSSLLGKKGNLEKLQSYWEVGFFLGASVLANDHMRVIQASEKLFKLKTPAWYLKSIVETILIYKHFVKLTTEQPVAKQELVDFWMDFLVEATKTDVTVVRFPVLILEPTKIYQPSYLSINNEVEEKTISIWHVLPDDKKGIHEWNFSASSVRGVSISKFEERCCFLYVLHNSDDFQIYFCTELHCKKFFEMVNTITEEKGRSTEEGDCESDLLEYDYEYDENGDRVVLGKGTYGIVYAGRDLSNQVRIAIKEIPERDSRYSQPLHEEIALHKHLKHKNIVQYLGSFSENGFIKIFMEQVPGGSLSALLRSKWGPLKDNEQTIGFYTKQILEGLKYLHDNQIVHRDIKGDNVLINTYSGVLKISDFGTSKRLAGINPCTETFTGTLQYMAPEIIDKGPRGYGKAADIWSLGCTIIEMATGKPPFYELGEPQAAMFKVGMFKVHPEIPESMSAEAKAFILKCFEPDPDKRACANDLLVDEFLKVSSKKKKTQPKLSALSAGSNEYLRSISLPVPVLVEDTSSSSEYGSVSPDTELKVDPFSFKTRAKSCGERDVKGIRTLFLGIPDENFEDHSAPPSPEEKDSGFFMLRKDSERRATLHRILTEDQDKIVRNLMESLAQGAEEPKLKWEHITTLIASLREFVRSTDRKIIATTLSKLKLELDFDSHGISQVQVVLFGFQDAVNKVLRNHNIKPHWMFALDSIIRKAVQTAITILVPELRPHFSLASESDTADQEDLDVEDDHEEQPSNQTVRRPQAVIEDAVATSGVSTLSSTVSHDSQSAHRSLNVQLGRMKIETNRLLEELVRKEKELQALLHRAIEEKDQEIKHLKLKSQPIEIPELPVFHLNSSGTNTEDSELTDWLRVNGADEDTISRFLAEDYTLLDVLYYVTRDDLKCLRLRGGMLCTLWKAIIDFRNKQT
As to the kind of experiment: Inhibition of ASK1.

The target of experiment [4] is T3, Aurora kinase A (Homo sapiens, UniProt O14965).
T3 sequence (O14965 whole entry): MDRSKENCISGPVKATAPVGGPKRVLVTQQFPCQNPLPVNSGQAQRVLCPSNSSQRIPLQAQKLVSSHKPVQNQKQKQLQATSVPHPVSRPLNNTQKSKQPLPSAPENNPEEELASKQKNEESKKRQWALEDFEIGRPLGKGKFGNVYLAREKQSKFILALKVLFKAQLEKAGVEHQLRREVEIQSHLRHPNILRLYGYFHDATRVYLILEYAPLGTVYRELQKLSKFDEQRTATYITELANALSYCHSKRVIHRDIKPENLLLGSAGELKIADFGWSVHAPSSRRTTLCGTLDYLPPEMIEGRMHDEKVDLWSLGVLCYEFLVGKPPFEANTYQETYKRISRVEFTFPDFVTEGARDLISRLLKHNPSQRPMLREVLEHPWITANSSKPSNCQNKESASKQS
Nature of the experiment: Inhibition of Aurora A.

The target of experiment [5] is Cyclin-dependent kinase 2 (Homo sapiens, UniProt P24941). Nature of the experiment: Inhibition of CDK2.
Experiment [6] deals with T4, Serine/threonine-protein kinase Chk1 (Homo sapiens, UniProt O14757).
T4 sequence (O14757 whole entry): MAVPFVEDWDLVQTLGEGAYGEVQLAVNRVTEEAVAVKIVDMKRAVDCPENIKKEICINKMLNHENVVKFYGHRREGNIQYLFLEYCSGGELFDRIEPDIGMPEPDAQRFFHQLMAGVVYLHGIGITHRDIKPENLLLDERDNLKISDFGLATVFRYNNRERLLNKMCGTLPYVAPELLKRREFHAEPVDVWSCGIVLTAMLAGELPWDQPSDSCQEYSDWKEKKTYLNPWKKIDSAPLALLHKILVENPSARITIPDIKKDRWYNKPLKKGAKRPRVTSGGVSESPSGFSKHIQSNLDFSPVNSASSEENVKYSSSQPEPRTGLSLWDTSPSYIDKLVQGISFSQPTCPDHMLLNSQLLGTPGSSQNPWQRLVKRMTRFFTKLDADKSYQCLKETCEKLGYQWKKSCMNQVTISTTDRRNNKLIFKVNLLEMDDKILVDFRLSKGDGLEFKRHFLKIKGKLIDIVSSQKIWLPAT
As to the kind of experiment: Inhibition of CHK1.

Experiment [7] concerns the target Insulin-like growth factor 1 receptor (Homo sapiens, UniProt P08069). As to the kind of experiment: Inhibition of IGF1R.
Experiment [8] addresses T5, Inhibitor of nuclear factor kappa-B kinase subunit alpha (Homo sapiens, UniProt O15111).
T5 sequence (O15111 whole entry): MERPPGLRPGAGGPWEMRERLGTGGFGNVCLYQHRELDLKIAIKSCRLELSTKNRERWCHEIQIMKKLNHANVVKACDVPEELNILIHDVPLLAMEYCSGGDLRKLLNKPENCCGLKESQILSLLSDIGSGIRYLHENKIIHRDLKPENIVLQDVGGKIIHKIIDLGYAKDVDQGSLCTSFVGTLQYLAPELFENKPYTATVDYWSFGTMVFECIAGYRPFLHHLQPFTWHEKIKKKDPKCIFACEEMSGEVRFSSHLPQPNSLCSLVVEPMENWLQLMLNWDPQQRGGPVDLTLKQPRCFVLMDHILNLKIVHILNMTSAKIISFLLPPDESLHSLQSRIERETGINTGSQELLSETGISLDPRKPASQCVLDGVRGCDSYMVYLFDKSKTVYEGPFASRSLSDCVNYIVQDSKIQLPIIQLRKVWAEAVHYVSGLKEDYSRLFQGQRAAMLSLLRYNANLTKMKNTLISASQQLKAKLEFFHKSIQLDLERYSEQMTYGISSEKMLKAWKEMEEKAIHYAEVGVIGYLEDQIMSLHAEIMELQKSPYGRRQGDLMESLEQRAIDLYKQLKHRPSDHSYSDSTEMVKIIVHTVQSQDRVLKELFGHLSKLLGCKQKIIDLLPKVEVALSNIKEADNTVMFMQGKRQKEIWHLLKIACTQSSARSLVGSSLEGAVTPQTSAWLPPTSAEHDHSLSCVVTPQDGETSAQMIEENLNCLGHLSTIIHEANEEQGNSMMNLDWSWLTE
As to the kind of experiment: Inhibition of IKK1.

Experiment [9] addresses Insulin receptor (Homo sapiens, UniProt P06213). As to the kind of experiment: Inhibition of INS.
The target of experiment [10] is T6, Tyrosine-protein kinase JAK3 (Homo sapiens, UniProt P52333).
T6 sequence (P52333 whole entry): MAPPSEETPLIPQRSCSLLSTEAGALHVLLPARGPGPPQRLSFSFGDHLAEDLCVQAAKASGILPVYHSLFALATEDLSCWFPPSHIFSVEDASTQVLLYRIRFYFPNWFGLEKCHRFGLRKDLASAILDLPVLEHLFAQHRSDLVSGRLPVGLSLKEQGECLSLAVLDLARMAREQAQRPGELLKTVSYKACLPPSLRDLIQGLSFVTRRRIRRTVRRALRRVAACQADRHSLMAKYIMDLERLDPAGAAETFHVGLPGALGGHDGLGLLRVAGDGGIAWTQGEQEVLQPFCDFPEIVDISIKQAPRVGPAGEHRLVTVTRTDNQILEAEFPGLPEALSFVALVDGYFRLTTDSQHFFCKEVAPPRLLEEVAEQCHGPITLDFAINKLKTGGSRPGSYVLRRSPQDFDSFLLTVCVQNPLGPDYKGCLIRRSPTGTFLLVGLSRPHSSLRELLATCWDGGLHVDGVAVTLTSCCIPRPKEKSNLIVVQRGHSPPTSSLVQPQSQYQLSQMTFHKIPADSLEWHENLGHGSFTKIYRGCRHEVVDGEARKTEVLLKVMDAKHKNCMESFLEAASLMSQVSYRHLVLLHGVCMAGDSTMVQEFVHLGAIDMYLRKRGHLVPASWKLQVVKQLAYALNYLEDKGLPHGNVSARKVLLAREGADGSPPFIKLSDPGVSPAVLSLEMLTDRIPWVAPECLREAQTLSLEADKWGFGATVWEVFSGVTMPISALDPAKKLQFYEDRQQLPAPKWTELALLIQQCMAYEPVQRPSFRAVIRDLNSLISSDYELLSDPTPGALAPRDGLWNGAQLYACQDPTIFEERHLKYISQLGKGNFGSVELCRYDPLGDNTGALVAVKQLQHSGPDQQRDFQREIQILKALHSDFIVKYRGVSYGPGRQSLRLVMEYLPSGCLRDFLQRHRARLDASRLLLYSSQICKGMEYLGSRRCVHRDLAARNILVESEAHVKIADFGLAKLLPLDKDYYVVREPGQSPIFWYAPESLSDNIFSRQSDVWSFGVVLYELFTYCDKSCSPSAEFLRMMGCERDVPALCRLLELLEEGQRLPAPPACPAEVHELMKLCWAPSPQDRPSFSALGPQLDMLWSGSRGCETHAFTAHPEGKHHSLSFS
Nature of the experiment: Inhibition of JAK3.

Experiment [11] has as its target Mitogen-activated protein kinase 8 (Homo sapiens, UniProt P45983). As to the kind of experiment: Inhibition of JNK1.
Experiment [12] deals with Ribosomal protein S6 kinase beta-1 (Homo sapiens, UniProt P23443). As to the kind of experiment: Inhibition of p70S6K.
Chain of Ribosomal protein S6 kinase beta-1 (P23443 whole entry, canonical isoform): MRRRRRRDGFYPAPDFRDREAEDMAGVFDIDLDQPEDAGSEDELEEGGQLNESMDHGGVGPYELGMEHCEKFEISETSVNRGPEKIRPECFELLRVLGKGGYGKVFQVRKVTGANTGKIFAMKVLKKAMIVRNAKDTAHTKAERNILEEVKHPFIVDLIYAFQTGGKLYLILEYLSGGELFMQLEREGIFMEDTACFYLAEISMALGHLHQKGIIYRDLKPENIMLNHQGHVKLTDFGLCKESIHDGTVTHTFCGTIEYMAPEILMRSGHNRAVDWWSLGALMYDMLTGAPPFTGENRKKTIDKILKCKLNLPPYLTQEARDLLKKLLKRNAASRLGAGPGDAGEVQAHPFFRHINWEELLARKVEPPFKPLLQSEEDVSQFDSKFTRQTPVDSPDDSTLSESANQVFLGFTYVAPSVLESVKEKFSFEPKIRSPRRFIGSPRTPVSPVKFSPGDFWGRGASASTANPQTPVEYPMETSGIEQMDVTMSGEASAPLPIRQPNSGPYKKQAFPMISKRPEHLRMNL
Experiment [13] has as its target Phosphatidylinositol 4,5-bisphosphate 3-kinase catalytic subunit alpha isoform (Homo sapiens, UniProt P42336). Nature of the experiment: Inhibition of PI3Kalpha.
In experiment [14] the target is T7, Serine/threonine-protein kinase Sgk1 (Homo sapiens, UniProt O00141).
T7 sequence (O00141 whole entry): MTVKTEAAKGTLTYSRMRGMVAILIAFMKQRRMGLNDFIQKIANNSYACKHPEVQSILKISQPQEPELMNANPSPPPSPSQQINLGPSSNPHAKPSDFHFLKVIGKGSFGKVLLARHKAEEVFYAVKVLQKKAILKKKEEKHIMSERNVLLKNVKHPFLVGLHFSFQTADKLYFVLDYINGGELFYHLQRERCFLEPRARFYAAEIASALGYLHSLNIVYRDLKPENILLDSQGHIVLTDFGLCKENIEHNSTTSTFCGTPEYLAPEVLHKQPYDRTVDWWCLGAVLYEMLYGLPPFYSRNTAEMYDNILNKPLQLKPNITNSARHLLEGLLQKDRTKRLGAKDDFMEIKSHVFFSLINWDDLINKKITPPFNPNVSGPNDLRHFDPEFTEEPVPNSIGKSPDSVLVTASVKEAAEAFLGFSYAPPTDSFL
As to the kind of experiment: Inhibition of SGK1.

Experiment [15] addresses Vascular endothelial growth factor receptor 2 (Homo sapiens, UniProt P35968). Nature of the experiment: Inhibition of VEGFR2.
The target in experiment [16] is T1, 3-phosphoinositide-dependent protein kinase 1. Nature of the experiment: Inhibition of human PDK1 preincubated with substrate biotinylated PDKtide for 30 mins measured after 4 hrs by Scintillation proximity assay. On the technique in general: In a scintillation proximity assay essentially only radioactivity close to the scintillant gives light.

Chain of Vascular endothelial growth factor receptor 2 (P35968 whole entry): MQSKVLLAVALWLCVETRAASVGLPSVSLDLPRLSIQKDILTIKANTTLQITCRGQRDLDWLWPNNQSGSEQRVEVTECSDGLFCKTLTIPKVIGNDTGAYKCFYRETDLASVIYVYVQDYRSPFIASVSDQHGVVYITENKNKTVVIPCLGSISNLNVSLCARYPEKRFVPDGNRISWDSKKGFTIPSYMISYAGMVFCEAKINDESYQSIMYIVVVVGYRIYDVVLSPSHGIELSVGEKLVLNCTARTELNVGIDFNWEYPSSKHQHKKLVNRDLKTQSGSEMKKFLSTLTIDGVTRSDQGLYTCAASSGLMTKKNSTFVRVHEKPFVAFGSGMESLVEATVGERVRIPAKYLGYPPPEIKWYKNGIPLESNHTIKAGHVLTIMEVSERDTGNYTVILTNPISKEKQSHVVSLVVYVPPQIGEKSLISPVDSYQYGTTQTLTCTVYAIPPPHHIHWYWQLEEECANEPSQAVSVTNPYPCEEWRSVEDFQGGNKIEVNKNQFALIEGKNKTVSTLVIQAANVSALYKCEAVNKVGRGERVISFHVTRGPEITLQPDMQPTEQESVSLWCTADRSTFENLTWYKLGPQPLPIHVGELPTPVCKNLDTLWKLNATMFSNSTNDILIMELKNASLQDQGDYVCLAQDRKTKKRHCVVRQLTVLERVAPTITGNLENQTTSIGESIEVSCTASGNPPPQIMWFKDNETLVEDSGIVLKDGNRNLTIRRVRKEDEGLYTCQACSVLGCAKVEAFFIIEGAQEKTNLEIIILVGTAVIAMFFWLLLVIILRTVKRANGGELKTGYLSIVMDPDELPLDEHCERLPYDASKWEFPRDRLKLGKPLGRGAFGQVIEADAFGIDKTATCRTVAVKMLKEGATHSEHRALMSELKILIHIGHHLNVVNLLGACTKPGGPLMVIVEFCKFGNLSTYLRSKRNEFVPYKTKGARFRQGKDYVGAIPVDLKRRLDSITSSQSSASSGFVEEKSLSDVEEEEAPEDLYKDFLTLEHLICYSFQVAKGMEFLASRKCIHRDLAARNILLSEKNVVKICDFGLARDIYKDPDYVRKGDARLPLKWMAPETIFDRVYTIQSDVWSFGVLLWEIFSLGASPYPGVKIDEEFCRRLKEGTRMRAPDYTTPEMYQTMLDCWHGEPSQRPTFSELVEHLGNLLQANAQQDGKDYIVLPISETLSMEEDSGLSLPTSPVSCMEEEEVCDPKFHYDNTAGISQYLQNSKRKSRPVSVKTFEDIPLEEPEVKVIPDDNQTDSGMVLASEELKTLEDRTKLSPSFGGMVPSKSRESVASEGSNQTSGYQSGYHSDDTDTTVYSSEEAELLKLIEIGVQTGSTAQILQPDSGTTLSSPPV
Chain of Mitogen-activated protein kinase 8 (P45983 whole entry): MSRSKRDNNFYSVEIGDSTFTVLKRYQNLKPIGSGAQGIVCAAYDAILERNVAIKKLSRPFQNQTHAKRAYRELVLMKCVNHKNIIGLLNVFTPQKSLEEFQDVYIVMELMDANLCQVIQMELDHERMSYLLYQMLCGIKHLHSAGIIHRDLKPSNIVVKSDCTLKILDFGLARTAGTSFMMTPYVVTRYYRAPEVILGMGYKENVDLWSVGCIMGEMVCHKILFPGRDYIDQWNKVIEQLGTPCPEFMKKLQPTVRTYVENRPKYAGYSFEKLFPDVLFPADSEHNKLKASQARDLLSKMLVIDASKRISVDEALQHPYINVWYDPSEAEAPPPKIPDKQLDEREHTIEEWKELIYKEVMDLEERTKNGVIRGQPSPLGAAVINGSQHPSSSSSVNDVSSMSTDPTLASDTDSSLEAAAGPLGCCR
Chain of Insulin-like growth factor 1 receptor (P08069 31-736 limits assumed): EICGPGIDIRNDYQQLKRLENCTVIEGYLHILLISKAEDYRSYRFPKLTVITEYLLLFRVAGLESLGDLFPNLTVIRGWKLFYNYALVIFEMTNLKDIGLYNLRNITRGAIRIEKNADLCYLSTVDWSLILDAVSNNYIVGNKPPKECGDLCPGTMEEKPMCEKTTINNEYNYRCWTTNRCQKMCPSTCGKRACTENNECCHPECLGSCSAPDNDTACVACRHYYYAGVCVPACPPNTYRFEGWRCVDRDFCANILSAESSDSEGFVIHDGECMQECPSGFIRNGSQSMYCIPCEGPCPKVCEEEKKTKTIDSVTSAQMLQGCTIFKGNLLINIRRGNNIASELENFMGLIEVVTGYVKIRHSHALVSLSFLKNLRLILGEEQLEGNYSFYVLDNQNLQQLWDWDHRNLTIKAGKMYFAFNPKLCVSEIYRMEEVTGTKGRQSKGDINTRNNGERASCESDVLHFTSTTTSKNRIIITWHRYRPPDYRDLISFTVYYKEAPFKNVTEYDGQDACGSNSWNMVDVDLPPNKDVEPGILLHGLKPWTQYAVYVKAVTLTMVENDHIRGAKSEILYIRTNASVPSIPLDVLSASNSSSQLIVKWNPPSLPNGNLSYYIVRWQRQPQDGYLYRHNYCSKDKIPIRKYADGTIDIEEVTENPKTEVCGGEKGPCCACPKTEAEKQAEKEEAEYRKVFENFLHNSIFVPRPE
Chain of Insulin-like growth factor 1 receptor (P08069 741-1367 limits assumed): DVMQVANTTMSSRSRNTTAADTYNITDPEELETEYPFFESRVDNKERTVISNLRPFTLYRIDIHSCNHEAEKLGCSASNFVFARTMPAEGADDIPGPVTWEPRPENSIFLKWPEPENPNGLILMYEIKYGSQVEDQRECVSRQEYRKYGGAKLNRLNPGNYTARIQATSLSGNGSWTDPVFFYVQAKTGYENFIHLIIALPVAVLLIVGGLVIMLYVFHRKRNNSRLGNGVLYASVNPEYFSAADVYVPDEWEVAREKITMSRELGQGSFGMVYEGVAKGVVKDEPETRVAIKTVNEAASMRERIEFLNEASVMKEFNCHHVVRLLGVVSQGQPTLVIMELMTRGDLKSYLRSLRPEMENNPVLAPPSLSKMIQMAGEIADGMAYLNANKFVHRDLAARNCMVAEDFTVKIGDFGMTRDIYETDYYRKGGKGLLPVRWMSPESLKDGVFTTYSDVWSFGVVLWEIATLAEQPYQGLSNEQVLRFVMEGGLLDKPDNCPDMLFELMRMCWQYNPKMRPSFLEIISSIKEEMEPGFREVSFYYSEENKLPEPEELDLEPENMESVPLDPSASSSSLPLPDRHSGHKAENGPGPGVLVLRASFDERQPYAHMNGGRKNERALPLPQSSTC

One may read the IC50 as the concentration that inhibits the measured activity by half. Read a high IC50 as lower potency. As to `c1cc(-c2cc[nH]n2)ccn1`, in [1], 326 µM corresponded to half-maximal inhibition (IC50).

In [1], `NC(=O)c1[nH]ncc1N` came in with a half-maximal inhibitory concentration (IC50) of 200 µM.

`NC(=O)c1cccc2cc[nH]c12` returned an IC50 in experiment [1] of 97.5 µM.

As to `Nc1cc(-c2ccco2)n[nH]1`, the IC50 in experiment [1] was found to be 313 µM.

Take `Nc1nccc(-c2ccc3c(N)n[nH]c3c2)n1`: the IC50 in experiment [2] was more than 10 µM; in experiment [3] it was 5.69 µM; in [4], 0.39 µM; in experiment [5], 0.28 µM; in experiment [6], more than 10 µM; in experiment [7], more than 10 µM. Further, the concentration for half-maximal inhibition (IC50) in experiment [8] was 0.1 µM; in [9], more than 10 µM; in experiment [10], 0.99 µM; in experiment [11], more than 10 µM; in experiment [12], 6.34 µM; in experiment [13], more than 10 µM. Besides, the IC50 in experiment [14] was more than 10 µM; in experiment [15], 0.84 µM; in experiment [16] it was 0.37 µM.

`Nc1cc(-c2ccc3c(N)n[nH]c3c2)ccn1` gave a half-inhibitory concentration (IC50) in [16] of 7.28 µM.

In experiment [1], `Nc1nc(N)c2[nH]cnc2n1` [2,6-DIAMINOPURINE] came in with an IC50 of 50.8 µM.

Consider `c1ccc(-c2nccs2)cc1` [2-PHENYLTHIAZOLE], for which the IC50 in experiment [1] is 95.1 µM.

Take `Nc1cc2ccccc2cn1` [ISOQUINOLIN-3-AMINE]: in experiment [1], the IC50 is 376 µM.
